# Laboratory results as given in patent US12144850B2, “Methods and compositions for car T cell therapy” (PURDUE RESEARCH FOUNDATION, priority 2016, dated 2024).
# Experiments:
# KB (FR+) cells = assay: Cytotoxicity assay of CAR T cells in vitro (LDH release), KB; format: cell-based; settings: KB (FR+) model, 100 nM conjugate; FIG. 3D
# Experimental: (§1) In order to test cytotoxicity of CAR T cells with desired FITC-ligands, a standard lactate dehydrogenase (LDH) release assay was performed using a Pierce™ LDH cytotoxicity assay kit from ThermoFisher Scientific. To prepare samples for the LDH assay, cancer cells were seeded at a density of 10^4 cells/100 μL of media in each well of a 96 well plate and grown overnight. CAR T cells were prepared the next day at various numbers to have different effector (CAR T cell):target cell (cancer cell) ratios (e.g. E:T=20:1, 10:1, 5:1 and 1:1). FITC-ligands at various concentrations were introduced into each well and co-cultured for 6-24 hours. After co-incubation, the plate containing CAR T cells and cancer cells was centrifuged at 350×g at room temperature for 10 min to remove cell debris or remaining cells. 50 μL of the supernatants of each sample were then transferred into a new 96 well plate. 50 μL of the prepared LDH reaction mixture was added to the transferred 50 μL of each sample and incubated at room temperature for 30 min. 50 μL of stop solution was added and the absorbance of each sample was measured at 490 nm and 680 nm. The percent of cytotoxicity was calculated for each sample by using the equation below: % Cytotoxicity=(Experimental value−effector cells spontaneous−target cells spontaneous)/(Target cell maximum control−target cell spontaneous control)×100
# LNCaP (PSMA+) cells = assay: Cytotoxicity assay of CAR T cells in vitro (LDH release), LNCaP; format: cell-based; settings: LNCaP (PSMA+) model, E:T 10:1, 100 nM conjugate; FIG. 3B
# Experimental: as §1
# MDA-MB-231(FR+) = assay: Two tumors on separate flanks of the same mouse, MDA-MB-231 tumor; format: in vivo, mice
# Description: (§2) In order to study whether same anti-FITC CAR T cell can eradicate mixture of heterogeneous cancer cells with cocktail of FITC-ligands, immunodeficient NSG mice (Jackson laboratory) were utilized for the in vivo study. Two different cancer cell lines (e.g. MDA-MB-231(FR+) and HEK(NK1R+)) were implanted into separate flanks on the same mouse. Then, anti-FITC CAR T cell (10^7 cells) was introduced by intravenous injection when tumor volumes reached about 50-100 mm^3. In addition, either a mixture of FITC-ligands (i.e. FITC-PEG12-Folate (500 nmole/kg) and FITC-PEG11-NK1R (500 nmole/kg)), single FITC-PEG11-NK-1R (500 nmole/kg) or PBS was introduced every other day by intravenous injection. The anti-tumor efficacy of CAR T cell with FITC-ligands was analyzed by measuring tumor volume at every other day.
# HEK(NK1R+) = assay: Two tumors on separate flanks of the same mouse, HEK tumor; format: in vivo, mice
# Description: as §2
# HEK293 (NK1R+) cells [1] = assay: Anti-tumor efficacy of CAR T cells in vivo, HEK293 (NK1R+) xenograft; set-up: species or system mice
# Experimental: (§3) Immunodeficient NSG mice (Jackson Laboratory) were used to identify the efficacy of CAR T cell anti-tumor activity in vivo. Each tumor-specific antigen expressing cancer cell line was subcutaneously injected into the shoulder of NSG mice to establish solid tumor xenografts. When tumor volume of around 50-100 mm^3 was reached, CAR T cells were introduced into mice bearing tumors and desired FITC-ligands were also introduced (i.v.) every other day. Control mice were administered PBS instead of FITC-ligands. Tumor volume and cytokine levels in the blood (IL2, IL6, IL10, IFNγ, and TNFα) were measured. General toxicity of the therapy was monitored by measuring weight loss. At the end of each treatment, mouse blood was collected to test for anemia, number of white blood cells and CAR T cell proliferation. Mouse organs were also evaluated.
# HEK293 (NK1R+) cells [2] = assay: Cytotoxicity assay of CAR T cells in vitro (LDH release), HEK293; format: cell-based; settings: HEK293 (NK1R+) model, E:T 10:1, 100 nM conjugate; FIG. 3C
# Experimental: as §1
# MDA-MB-231 (FR+) cells = assay: Anti-tumor efficacy of CAR T cells in vivo, MDA-MB-231 (FR+) xenograft; set-up: species or system mice; settings: during treatment, FIG. 7B
# Experimental: as §3
# [3] = anti-FITC CAR T cell (10^7 cells) + both FITC-PEG11-NK1R and FITC-PEG12-Folate, 500 nmole/kg each, i.v. every other day, FIG. 19C
# [4] = anti-FITC CAR T cell (10^7 cells) + only FITC-PEG11-NK1R 500 nmole/kg i.v. every other day, FIG. 19B
compound,measurement,setting,value
O=C(O)CC[C@H](NC(=O)N[C@@H](CCC(=O)NCCCCCCCC(=O)N[C@@H](Cc1ccccc1)C(=O)N[C@@H](Cc1ccccc1)C(=O)NCCNC(=S)Nc1ccc(-c2c3ccc(=O)cc-3oc3cc(O)ccc23)c(C(=O)O)c1)C(=O)O)C(=O)O [FITC-DUPA],CAR T cell cytotoxicity to tumor cells as a function of E:T ratio,KB (FR+) cells,a function of the E:T ratio
same,cytotoxicity of CAR T cells (activation),LNCaP (PSMA+) cells,greater activation than using FITC-Folate or in the absence of a conjugate
O=C(CN1CCC[C@H](OCc2cc(C(F)(F)F)cc(C(F)(F)F)c2)[C@@H]1c1ccccc1)NCCOCCOCCOCCOCCOCCOCCOCCOCCOCCOCCOCCNC(=S)Nc1ccc(-c2c3ccc(=O)cc-3oc3cc(O)ccc23)c(C(=O)O)c1 [FITC-PEG11-NK1],MDA-MB-231 tumor volume,MDA-MB-231(FR+); [3],eliminated
same,MDA-MB-231 tumor volume,MDA-MB-231(FR+); [4],continued growing
same,HEK (NK1R) tumor volume,HEK(NK1R+); [3],eliminated
same,HEK (NK1R) tumor volume,HEK(NK1R+); [4],eradicated
same,blood indices (cytokine storm),"HEK293 (NK1R+) cells [1]; HEK-NK1R model, 500 nmoles/kg, FIG. 9",a cytokine storm had not occurred
same,tumor size,"HEK293 (NK1R+) cells [1]; NSG mice, CAR T cells + conjugate 500 nmol/kg i.v. every other day, FIG. 5A",decreased
same,body weight,"HEK293 (NK1R+) cells [1]; NSG mice, CAR T cells + conjugate, FIG. 5B",unchanged relative to the control mouse
same,"harvested organs, indications of cytokine release syndrome","HEK293 (NK1R+) cells [1]; after two weeks of therapy, versus control group, FIGS. 6A-B",appeared normal in size with no indications of cytokine release syndrome
same,percentage of CAR T cells in human T cells,"HEK293 (NK1R+) cells [1]; post CAR T cell injection along with conjugate, FIG. 5C",increased
same,cytotoxicity of CAR T cells (activation),HEK293 (NK1R+) cells [2],greater than activation using FITC-Folate or in the absence of a conjugate
same,body weight,MDA-MB-231 (FR+) cells,unchanged during treatment
